This note sets out measurements from ChEMBL document CHEMBL5244218, “Quinolone derivatives and their activities against methicillin-resistant Staphylococcus aureus (MRSA)” (Eur J Med Chem, 2018).

In general, MIC refers to the lowest concentration found to suppress growth. As a reminder, the pIC50 is the negative decadic logarithm of the IC50, by convention in mol/L. Usually MBC stands for the lowest tested concentration that kills the bacteria rather than only halting them.

The test system of experiment [1] is Staphylococcus aureus. Description: Antimicrobial activity against methicillin-resistant Staphylococcus aureus isolates by agar dilution method. The experiment is classed as functional. For orientation: In agar dilution, organisms are placed on agar that contains the substance at set levels.
Experiment [2] relates to Staphylococcus aureus. Kind of experiment: Antimicrobial activity against methicillin-resistant Staphylococcus aureus. The experiment is classed as functional, organism-based.
Experiment [3] relates to Staphylococcus aureus. Description: Antibacterial activity against methicillin-resistant Staphylococcus aureus. The experiment is classed as functional.
The subject of experiment [4] is Staphylococcus aureus. Description: Antimicrobial activity against methicillin-resistant Staphylococcus aureus assessed as inhibition of microbial growth. Format: functional.
Experiment [5] concerns Staphylococcus aureus. Description: Bactericidal activity against methicillin-resistant Staphylococcus aureus assessed as inhibition of microbial growth. Format: functional.
In experiment [6] the test system is Staphylococcus aureus. Description: Antimicrobial activity against methicillin-resistant Staphylococcus aureus incubated for 18 hrs by Agar dilution method. Format: functional.
Experiment [7] deals with Staphylococcus aureus. Kind of experiment: Antibacterial activity against methicillin-resistant Staphylococcus aureus assessed as inhibition of microbial growth. The experiment is classed as functional.
The subject of experiment [8] is Staphylococcus aureus. Description: Antimicrobial activity against methicillin-resistant Staphylococcus aureus incubated for 18 hrs by Alamar blue staining based analysis. The experiment is classed as functional. A general note: The colour change of resazurin is a common sign of viable cells or microbes.

pIC50: −log10 of the molar value. In brackets after ≈: the same amount, converted by molar mass.

On to `COc1ccc(NC2CN(c3c(F)cc4c(=O)c(C(=O)O)cn(C5CC5)c4c3F)C2)cc1`, for which the MIC against Staphylococcus aureus [1] stood at 0.16 µg/mL (≈ 0.362 µM).
The same measure, in the same setting: in the case of `O=C(O)c1cn(C2CC2)c2c(F)c(N3CC(Nc4ccc(Cl)cc4)C3)c(F)cc2c1=O` it was 0.016 µg/mL (≈ 0.0359 µM); in that of `O=C(O)c1cn(C2CC2)c2c(F)c(N3CC(N(Cc4ccccc4)Cc4ccccc4)C3)c(F)cc2c1=O`, 0.016 µg/mL (≈ 0.031 µM).
Still for that read-out and setting: in the case of `O=C(O)c1cn(C2CC2)c2c(F)c(N3CC(Nc4ccccc4)C3)c(F)cc2c1=O` it was 0.016 µg/mL (≈ 0.0389 µM); in that of `Cc1ccc(NC2CN(c3c(F)cc4c(=O)c(C(=O)O)cn(C5CC5)c4c3F)C2)cc1`, 0.016 µg/mL (≈ 0.0376 µM).
Regarding `COc1cc(=O)n(C)c2ccccc12`, the pIC50 in the experiment on Staphylococcus aureus [2] was 5.10.
Take `COc1c(N2CCOCC2)c(F)cc2c(=O)c(C(=O)Nc3nccs3)cn(C3CC3)c12`: the minimum inhibitory concentration (MIC) with Staphylococcus aureus [3] was more than 201 µg/mL.
The compound `COc1c(N2CCCCC2)c(F)cc2c(=O)c(C(=O)Nc3nccs3)cn(C3CC3)c12` registered an MIC in the experiment with Staphylococcus aureus [3] of more than 201 µg/mL.
On the same count and under the same terms, in the case of `COc1c(N2CCCC2)c(F)cc2c(=O)c(C(=O)Nc3nccs3)cn(C3CC3)c12` it was more than 201 µg/mL.
In the case of `COc1ccc(C2=CN3c4c(c(=O)c(C(=O)O)cn4C4CC4)C=C(F)C3N=N2)cc1OC` (stereo unspecified), the MIC with Staphylococcus aureus [4] stood at 0.25 µg/mL.
Compound `COc1c(-n2cc3ccccc3c2)c(F)cc2c(=O)c(C(=O)Nc3nccs3)cn(C3CC3)c12` registered a minimum inhibitory concentration (MIC) against Staphylococcus aureus [3] of more than 201 µg/mL.
As for `COc1ccc(C(=O)N2CCN(C(=O)N3CCN(c4ccc5c(=O)c(C(=O)O)cn(C6CC6)c5c4)CC3)CC2)cc1OC`, the MIC with Staphylococcus aureus [4] is less than 0.016 µg/mL. Besides, the minimal bactericidal concentration (MBC) with Staphylococcus aureus [5] was not below 128 µg/mL.
In the experiment on Staphylococcus aureus [6], `Cn1nc2c(c1N)CN(c1nc3c(cc1F)c(=O)c(C(=O)O)cn3C1CC1)C2` came in with an MIC of 0.125 µg/mL (≈ 0.325 µM).
For `COc1cc(OC)cc(C(=O)N2CCN(C(=O)N3CCN(c4ccc5c(=O)c(C(=O)O)cn(C6CC6)c5c4)CC3)CC2)c1`, the minimal inhibitory concentration (MIC) in the experiment with Staphylococcus aureus [4] is less than 0.016 µg/mL. Further, the MBC in the experiment on Staphylococcus aureus [5] was not below 128 µg/mL.
Consider `COc1c2c(cc(F)c1N1C[C@H]3CCCN(C[C@@H](O)Cn4cc([N+](=O)[O-])nc4C)[C@H]3C1)C(=O)C(C(=O)O)=CC2C1CC1` (stereo partly specified), for which the MIC against Staphylococcus aureus [2] came out at 2 µg/mL (≈ 3.43 µM).
On to `CNCC1CN(c2cc(N)c3c(=O)c(C(=O)O)cn(C4CC4)c3c2C(C)=O)CC1(C)C` (stereo unspecified), for which, in the experiment on Staphylococcus aureus [7], the MIC stood at 0.015 µg/mL.
The compound `Nc1[nH]nc2c1CN(c1c(F)cc3c(=O)c(C(=O)O)cn(CCF)c3c1F)C2` yielded an MIC in the experiment on Staphylococcus aureus [6] of 0.125 µg/mL (≈ 0.318 µM).
In turn, `COc1c(N2CC/C(=N/Oc3ccc(Cl)cc3)C(N)C2)c(F)cc2c(=O)c(C(=O)O)cn(C3CC3)c12` (stereo unspecified) came in with an MIC with Staphylococcus aureus [8] of 0.008 µg/mL (≈ 0.0155 µM).
With `CCO/N=C1\CCN(c2nc3c(cc2F)c(=O)c(C(=O)O)cn3C2CC2)CC1(C)CN` (stereo unspecified), the MIC against Staphylococcus aureus [2] stood at 8 µg/mL (≈ 18.5 µM).
As for `CNCC1CN(c2ccc3c(=O)c(C(=O)O)cn(C4CC4)c3c2)CC1(C)C` (stereo unspecified), the MIC with Staphylococcus aureus [7] came to 0.015 µg/mL.
Compound `COc1cc(OC)cc(O/N=C2/CCN(c3c(F)cc4c(=O)c(C(=O)O)cn(C5CC5)c4c3OC)CC2N)c1` (stereo unspecified) had an MIC with Staphylococcus aureus [8] of 0.008 µg/mL (≈ 0.0148 µM).
Take `CNCC1CN(c2ccc3c(=O)c(C(=O)O)cn(C4CC4)c3n2)CC1(C)C` (stereo unspecified): in the experiment on Staphylococcus aureus [7], the MIC was found to be 0.015 µg/mL.
Regarding `COc1cccc(C(=O)N2CCN(C(=O)N3CCN(c4ccc5c(=O)c(C(=O)O)cn(C6CC6)c5c4)CC3)CC2)c1`, the MIC in the experiment on Staphylococcus aureus [4] was less than 0.016 µg/mL. Besides, the MBC in the experiment on Staphylococcus aureus [5] is not below 128 µg/mL.
Regarding `Nc1[nH]nc2c1CN(c1c(F)cc3c(=O)c(C(=O)O)cn(C4CC4)c3c1C(=O)C(F)F)C2`, 0.125 µg/mL (≈ 0.279 µM) was the least that counted as inhibitory in the experiment on Staphylococcus aureus [6] (MIC).
On to `COc1ccc(C(=O)N2CCN(C(=O)N3CCN(c4ccc5c(=O)c(C(=O)O)cn(C6CC6)c5c4)CC3)CC2)c(OC)c1`, for which the MIC in the experiment on Staphylococcus aureus [4] is less than 0.016 µg/mL. Moreover, the MBC with Staphylococcus aureus [5] is not below 128 µg/mL.
In the experiment with Staphylococcus aureus [6], `Cn1nc2c(c1N)CN(c1c(F)cc3c(=O)c(C(=O)O)cn(C4CC4)c3c1F)C2` came in with an MIC of 0.125 µg/mL (≈ 0.311 µM).
With `CCn1cc(C(=O)O)c(=O)c2cc(F)c(N3Cc4n[nH]c(N)c4C3)c(F)c21`, the MIC in the experiment on Staphylococcus aureus [6] stood at 0.125 µg/mL (≈ 0.333 µM).
As to `O=C(O)c1cn(C2CC2)c2c(c1=O)C=C(F)C1N=NC(c3ccc(Br)cc3)=CN21` (stereo unspecified), the minimal inhibitory concentration (MIC) in the experiment with Staphylococcus aureus [4] was determined as 0.25 µg/mL.
Regarding `CC1(C)CN(c2ccc3c(=O)c(C(=O)O)cn(-c4ccc(F)cc4F)c3n2)CC1CN` (stereo unspecified), the MIC with Staphylococcus aureus [7] is 0.015 µg/mL.
Same read-out and setting: as for `CC1(C)CN(c2ccc3c(=O)c(C(=O)O)cn(C4CC4)c3c2)CC1CN` (stereo unspecified), the figure is 0.015 µg/mL.
On to `Cn1nc2c(c1N)CN(c1c(F)cc3c(=O)c(C(=O)O)cn(C4CC4)c3c1C(=O)C(F)F)C2`, for which, in the experiment with Staphylococcus aureus [6], the MIC is 0.125 µg/mL (≈ 0.271 µM).
For the compound `COc1ccc(OC)c(O/N=C2/CCN(c3c(F)cc4c(=O)c(C(=O)O)cn(C5CC5)c4c3OC)CC2N)c1` (stereo unspecified), 0.008 µg/mL (≈ 0.0148 µM) was the least that counted as inhibitory in the experiment with Staphylococcus aureus [8] (MIC).
In the experiment on Staphylococcus aureus [6], `Nc1[nH]nc2c1CN(c1c(F)cc3c(=O)c(C(=O)O)cn(C4CC4)c3c1F)C2` gave an MIC of 0.125 µg/mL (≈ 0.323 µM).
As for `O=C(O)c1cn(C2CC2)c2c(c1=O)C=C(F)C1N=NC(c3cccc(Cl)c3)=CN21` (stereo unspecified), in the experiment on Staphylococcus aureus [4], the MIC amounted to 0.25 µg/mL.
On the same count and under the same terms, as for `O=C(O)c1cn(C2CC2)c2c(c1=O)C=C(F)C1N=NC(c3ccc(O)cc3)=CN21` (stereo unspecified), the figure is 0.25 µg/mL; as for `Nc1cccc(C2=CN3c4c(c(=O)c(C(=O)O)cn4C4CC4)C=C(F)C3N=N2)c1` (stereo unspecified), 0.25 µg/mL; as for `O=C(O)c1cn(C2CC2)c2c(c1=O)C=C(F)C1N=NC(c3ccc(Cl)cc3)=CN21` (stereo unspecified), 0.25 µg/mL.
